# Measured values published in patent publication US12439919B2, “Active compound combinations” (priority 2019, dated 2025).
# Assays:
# lentils = test: Field trials in lentils Western Canada 2018, yield (Example H); format: in vivo
# Procedure: Field trials in lentils were conducted in Western Canada in spring/summer 2018.
# (§1) Fertilization and herbicide applications were carried out according to the local agricultural practice.
# (§2) Fluopyram was added to Delaro in a final concentration of 50, 75 and 90 g/ha.
# The following products as shown in Table 18 were sprayed using a Backpack hand boom sprayer with air induction flat fan spray nozzles applying 93.5 L/Ha spray solution at crop BBCH—growth stage 62-63.
# field peas = test: Field trials in field peas Western Canada 2018, yield (Example I); format: in vivo
# Procedure: Field trials in field peas were conducted in Western Canada in spring/summer 2018.
# as §1, §2
# The following products as shown in Table 20 were sprayed using a Backpack hand boom sprayer with flat fan spray nozzles applying 93.5 L/ha spray solution at crop BBCH growth stage 63.
# Alternaria solani = test: In vivo preventive test on Alternaria test (tomatoes) (Example G1); settings: 3 days after inoculation
# From the text: (§3) A synergistic effect of fungicides is always present when the fungicidal activity of the active compound combinations exceeds the total of the activities of the active compounds when applied individually. The expected activity for a given combination of two active compounds can be calculated as follows (cf. Colby, S. R., “Calculating Synergistic and Antagonistic Responses of Herbicide Combinations,” Weeds 1967, 15, 20-22):
# (§4) If • X is the efficacy when active compound A is applied at an application rate of m ppm (or g/ha), • Y is the efficacy when active compound B is applied at an application rate of n ppm (or g/ha), • Z is the efficacy when active compound […] ppm (or g/ha), • E1 is the efficacy when the active compounds A and B are applied at application rates of m and n ppm (or g/ha), respectively, and • E2 is the efficacy when the active compounds A, B and C are applied at application rates of m, n and r ppm (or g/ha), respectively, and then
# (§5) The degree of efficacy, expressed in % is denoted. 0% means an efficacy which corresponds to that of the control while an efficacy of 100% means that no disease is observed.
# (§6) If the actual fungicidal activity exceeds the calculated value, then the activity of the combination is superadditive, i.e., a synergistic effect exists. In this case, the efficacy which was actually observed must be greater than the value for the expected efficacy (E) calculated from the abovementioned formula.
# (§7) Solvent: 24.5 parts by weight of acetone • 24.5 parts by weight of dimethyl sulfoxide
# (§8) Emulsifier: 1 part by weight of alkylaryl polyglycol ether
# (§9) To produce a suitable preparation of active compound, 1 part by weight of active compound is mixed with the stated amounts of solvent and emulsifier, and the concentrate is diluted with water to the desired concentration.
# (§10) To test for preventive activity, young plants are sprayed with the preparation of active compound at the stated rate of application. After the spray coating has dried on, the plants are inoculated with an aqueous spore suspension of Alternaria solani. The plants are then placed in an incubation cabinet at approximately 20° C. and a relative atmospheric humidity of 100%.
# The test is evaluated 3 days after the inoculation. 0% means an efficacy which corresponds to that of the untreated control while an efficacy of 100% means that no disease is observed.
# Venturia inaequalis = test: In vivo preventive test on Venturia test (apples) (Example G2); settings: 10 days after inoculation
# From the text: as §3, §4, §5, §6, §7, §8, §9
# as §10, with “conidia” for “spore”, “the causal agent of apple scab (Venturia inaequalis) and” for “Alternaria solani. The plants are”, “remain for 1 day” for “placed”
# The plants are then placed in a greenhouse at approximately 21° C. and a relative atmospheric humidity of approximately 90%.
# The test is evaluated 10 days after the inoculation. 0% means an efficacy which corresponds to that of the untreated control, while an efficacy of 100% means that no disease is observed.
smiles,measurement,setting,value
"O=C(NCCc1ncc(C(F)(F)F)cc1Cl)c1ccccc1C(F)(F)F [Fluopyram, N-[2-[3-chloro-5-(trifluoromethyl)-2-pyridinyl]ethyl]-2-(trifluoromethyl)benzamide]",Yield [% of Priaxor treatment-Priaxor is 100%],"lentils; BBCH 62-63, Fluopyram 50 g/ha",93.8 % of Priaxor treatment
same,Yield [% of Priaxor treatment-Priaxor is 100%],"lentils; BBCH 62-63, Fluopyram 75 g/ha",96.3 % of Priaxor treatment
same,Yield [% of Priaxor treatment-Priaxor is 100%],"field peas; BBCH 63, Fluopyram 50 g/ha",98.9 % of Priaxor treatment
same,Yield [% of Priaxor treatment-Priaxor is 100%],"field peas; BBCH 63, Fluopyram 75 g/ha",99.7 % of Priaxor treatment
same,Efficacy %,Alternaria solani; fluopyram 0.75 ppm,5%
same,Efficacy %,Alternaria solani; fluopyram 1.5 ppm,8%
same,Efficacy %,Alternaria solani; fluopyram 3 ppm,10%
same,Efficacy %,Venturia inaequalis; fluopyram 0.75 ppm,0%
same,Efficacy %,Venturia inaequalis; fluopyram 1.5 ppm,0%
same,Efficacy %,Venturia inaequalis; fluopyram 3 ppm,5%
"OC(Cc1ccccc1Cl)(Cn1nc[nH]c1=S)C1(Cl)CC1 (stereo not shown) [Prothioconazole, 2-[2-(1-chlorocyclopropyl)-3-(2-chlorophenyl)-2-hydroxypropyl]-1,2-dihydro-3H-1,2,4-triazole-3-thione]",Efficacy %,Alternaria solani; prothioconazole 1.05 ppm,0%
same,Efficacy %,Alternaria solani; prothioconazole 2.1 ppm,0%
same,Efficacy %,Alternaria solani; prothioconazole 4.2 ppm,10%
same,Efficacy %,Venturia inaequalis; prothioconazole 1.05 ppm,0%
same,Efficacy %,Venturia inaequalis; prothioconazole 2.1 ppm,17%
same,Efficacy %,Venturia inaequalis; prothioconazole 4.2 ppm,41%
"CO/N=C(/C(=O)OC)c1ccccc1CO/N=C(\C)c1cccc(C(F)(F)F)c1 [Trifloxystrobin, methylalpha-(methoxyimino)-2-[[[[1-[3-(trifluoromethyl)phenyl]ethylidene]amino]oxy]methyl]-benzeneacetate]",Efficacy %,Alternaria solani; trifloxystrobin 0.9 ppm,23%
same,Efficacy %,Alternaria solani; trifloxystrobin 1.8 ppm,31%
same,Efficacy %,Alternaria solani; trifloxystrobin 3.6 ppm,41%
same,Efficacy %,Venturia inaequalis; trifloxystrobin 0.9 ppm,40%
same,Efficacy %,Venturia inaequalis; trifloxystrobin 1.8 ppm,65%
same,Efficacy %,Venturia inaequalis; trifloxystrobin 3.6 ppm,89%
